According to ChEMBL document CHEMBL1201862, “PubChem BioAssay data set” (2004):
The source made the active and inactive calls.

How the values were obtained:
[1] = blockers of bursicon-stimulated LGR2 cAMP reporter – cell-based, HEK293, CRE-luciferase reporter, cherry pick, set 2, dose response (AID 743343); assay type: functional;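 note: transfected cells were stimulated with diluted bursicon conditioned medium after compound addition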
[2] = blockade of melanocortin 4 receptor signaling – cell-based, plate reader, cherry pick, counter-screen for LGR2 antagonist project, dose response (AID 743444); assay type: functional;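 note: transfected HEK 293 cells stimulated with alpha-MSH peptide; potency of inhibitors of the alpha-MSH evoked signal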
[3] = target: T1, Microphthalmia-associated transcription factor (Homo sapiens, UniProt O75030); assay: reducers of TRPM1 reporter luminescence, concentration series – cell-based, SK-MEL-5, cherry-picked, set 3, MITF inhibitor project, dose response (AID 493073); assay type: functional;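 note: SK-MEL-5 melanoma cells with luciferase driven by the MITF target TRPM1 promoter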
T1 sequence (O75030 whole entry): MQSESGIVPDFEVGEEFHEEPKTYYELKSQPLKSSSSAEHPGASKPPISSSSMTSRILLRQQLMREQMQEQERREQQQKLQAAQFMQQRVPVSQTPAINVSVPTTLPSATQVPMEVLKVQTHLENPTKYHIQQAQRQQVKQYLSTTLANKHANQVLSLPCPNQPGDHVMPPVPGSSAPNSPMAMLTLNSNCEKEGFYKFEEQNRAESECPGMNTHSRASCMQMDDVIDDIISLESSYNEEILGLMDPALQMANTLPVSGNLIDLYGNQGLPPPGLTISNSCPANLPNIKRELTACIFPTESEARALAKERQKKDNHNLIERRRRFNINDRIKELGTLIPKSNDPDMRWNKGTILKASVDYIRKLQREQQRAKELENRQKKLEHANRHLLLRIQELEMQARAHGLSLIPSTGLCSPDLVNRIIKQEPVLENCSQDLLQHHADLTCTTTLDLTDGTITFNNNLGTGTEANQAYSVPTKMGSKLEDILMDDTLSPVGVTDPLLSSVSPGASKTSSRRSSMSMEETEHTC

[4] = target: Dual specificity tyrosine-phosphorylation-regulated kinase 1A (Rattus norvegicus, UniProt Q63470); assay type: biochemical, Homo sapiens
[5] = ADP-Glo luciferase signal interference – biochemical, luminescence, cherry-picked samples, set 2, artefact control for CDK5 inhibitor project, dose response (AID 504546); assay type: functional, cell-based
[6] = target: Luciferin 4-monooxygenase (Photinus pyralis, UniProt P08659); assay: inhibition of purified Photinus pyralis luciferase – biochemical, luminescence, dose response (AID 1891)
Luciferin 4-monooxygenase, sequence (P08659 whole entry): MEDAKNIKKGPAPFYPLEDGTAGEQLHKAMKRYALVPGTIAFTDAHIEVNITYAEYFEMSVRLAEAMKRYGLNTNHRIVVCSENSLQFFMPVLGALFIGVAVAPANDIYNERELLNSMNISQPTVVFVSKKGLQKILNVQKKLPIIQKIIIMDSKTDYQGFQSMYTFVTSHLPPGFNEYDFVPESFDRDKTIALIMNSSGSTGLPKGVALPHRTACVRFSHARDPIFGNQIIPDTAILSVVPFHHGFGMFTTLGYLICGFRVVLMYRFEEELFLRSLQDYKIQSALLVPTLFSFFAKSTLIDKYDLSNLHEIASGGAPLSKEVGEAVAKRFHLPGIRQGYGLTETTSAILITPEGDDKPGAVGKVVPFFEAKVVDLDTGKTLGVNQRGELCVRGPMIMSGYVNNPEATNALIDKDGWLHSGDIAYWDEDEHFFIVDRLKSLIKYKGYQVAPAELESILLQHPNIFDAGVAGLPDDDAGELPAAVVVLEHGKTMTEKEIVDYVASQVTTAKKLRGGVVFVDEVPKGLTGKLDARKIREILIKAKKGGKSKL

[7] = Luminescence Cell-Based Dose Confirmation HTS to Identify Inhibitors of Platelet Dense Granule Release. [Related pubchem assays: 1663 (Primary HTS), 1678 (Summary of Project)]; assay type: functional
[8] = viability loss in HEK293 cells – cell-based, plate reader, cherry-picked samples, cytotoxicity control, dose response (AID 743446); assay type: functional
[9] = toxicity toward HepG2 liver cells – cell-based, plate reader, cherry-pick, antagonist series, cytotoxicity control, dose response (AID 743416); assay type: functional
[10] = DRD fibroblast viability loss – cell-based, non-viral oncogenic, luminescence, dose response (AID 1934); assay type: functional; settings: Homo sapiens
BJ [11] = assay: BJ-TERT fibroblast viability loss – cell-based, RAS-independent, luminescence, dose response (AID 1933); assay type: functional; settings: Homo sapiens
BJ [12] = assay: BJ-TERT-LT-ST fibroblast viability loss – cell-based, RAS-independent, luminescence, dose response (AID 1935); assay type: functional; settings: Homo sapiens;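 note: BJ fibroblasts immortalized with TERT plus LT and ST oncogenes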
BJ [13] = assay: cells; assay type: functional, cell-based; settings: Homo sapiens
[14] = luciferase inhibitors in kinase-free ADP detection – biochemical, luminescence, cherry-pick, set 02, artefact control for Dyrk1A inhibitor project, dose response (AID 588348)
[15] = A549 cell cytotoxicity, dose response, cytotoxicity control, plate reader, cherry-pick, antagonist series (AID 743412); assay type: functional, cell-based
[16] = loss of viability in HepG2 cells – cell-based, CellTiter-Glo, cherry-picked, cytotoxicity control for Shn3 inhibitor project, dose response (AID 624134); assay type: functional
[17] = target: T2, High affinity choline transporter 1 (Homo sapiens, UniProt Q9GZV3); assay: human choline transporter potentiators, potency – cell-based, 10-point CRC, membrane potential dye, dose response (AID 602376); assay type: functional
T2 sequence (Q9GZV3 whole entry): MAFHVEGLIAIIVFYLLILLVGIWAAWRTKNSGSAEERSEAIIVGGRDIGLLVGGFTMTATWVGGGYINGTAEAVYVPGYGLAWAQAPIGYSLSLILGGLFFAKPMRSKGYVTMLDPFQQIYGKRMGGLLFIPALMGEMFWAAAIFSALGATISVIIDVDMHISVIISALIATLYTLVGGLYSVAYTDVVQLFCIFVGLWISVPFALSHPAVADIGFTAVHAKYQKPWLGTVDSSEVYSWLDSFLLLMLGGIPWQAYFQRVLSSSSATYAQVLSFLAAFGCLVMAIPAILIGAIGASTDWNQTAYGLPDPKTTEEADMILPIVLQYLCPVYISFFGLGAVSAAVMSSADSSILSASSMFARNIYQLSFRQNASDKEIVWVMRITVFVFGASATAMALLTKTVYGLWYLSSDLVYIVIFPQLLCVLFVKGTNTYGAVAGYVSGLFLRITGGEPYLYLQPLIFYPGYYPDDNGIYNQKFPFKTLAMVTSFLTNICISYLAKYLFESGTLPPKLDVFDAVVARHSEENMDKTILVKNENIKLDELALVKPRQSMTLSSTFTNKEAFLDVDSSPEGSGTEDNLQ

HEK293 [18] = assay: EBV LMP1 TES2 canonical NF-kB signalling blockers – cell-based, HEK293, luciferase, cherry-pick, dose response (AID 588343); assay type: functional; settings: Homo sapiens
H9c2 = assay: cells; assay type: functional, cell-based; settings: Rattus norvegicus, H9c2, Myocardium;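 note: confirmatory concentration-response retest of ultra-high-throughput screening hits for modulation of myocardial damage; cell death induced by hydrogen peroxide oxidative stress; compound pretreatment for 60 min then peroxide exposure for 2 h; potency is for protecting the cells against peroxide damage rather than for killing them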
[19] = target: Heat shock protein HSP 90-alpha (Homo sapiens, UniProt P07900); assay type: functional, organism-based
[20] = target: Nuclear receptor subfamily 0 group B member 1 (Homo sapiens, UniProt P51843); assay: Luminescence-based cell-based high throughput dose response assay for inhibitors of the orphan nuclear receptor subfamily 0, group B, member 1 (DAX1; NR0B1). [Related pubchem assays (depositor defined):AID504766, AID504790]; assay type: functional
Nuclear receptor subfamily 0 group B member 1, sequence (P51843 whole entry): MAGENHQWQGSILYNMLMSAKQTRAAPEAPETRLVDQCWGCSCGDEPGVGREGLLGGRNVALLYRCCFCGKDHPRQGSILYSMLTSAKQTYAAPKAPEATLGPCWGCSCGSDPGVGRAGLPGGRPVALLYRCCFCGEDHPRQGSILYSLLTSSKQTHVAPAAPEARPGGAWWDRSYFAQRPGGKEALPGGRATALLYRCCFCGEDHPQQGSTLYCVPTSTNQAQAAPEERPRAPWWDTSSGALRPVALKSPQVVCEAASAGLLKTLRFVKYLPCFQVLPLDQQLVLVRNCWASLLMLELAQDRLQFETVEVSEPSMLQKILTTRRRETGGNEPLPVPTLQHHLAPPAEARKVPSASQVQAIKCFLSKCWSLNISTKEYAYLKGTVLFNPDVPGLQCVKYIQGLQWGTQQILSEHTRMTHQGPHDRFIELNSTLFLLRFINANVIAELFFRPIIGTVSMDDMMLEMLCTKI

HEK293 [21] = assay: cells; assay type: functional, cell-based; settings: Homo sapiens
[22] = Vero cell cytotoxicity, cytotoxicity control for M. tuberculosis inhibitor project, purified and synthesized samples, set 3 (AID 504684); assay type: functional
[23] = A Cell Based Secondary Assay to Explore Cytotoxicity in HepG2 Cells of Compounds that Modulate Mycobacterium tuberculosis in Media Containing Glycerol versus Media without Glycerol (2).; assay type: functional
[24] = microbe, parasite or virus in culture; assay type: functional; settings: Mycobacterium tuberculosis
[25] = THP-1 cell cytotoxicity, dose response, cytotoxicity control for non-replicating M. tuberculosis project (AID 489025); assay type: functional
[26] = Trypanosoma cruzi growth suppression in host cells – NIH3T3 host cells, beta-gal luminescence, confirmation (AID 2044); assay type: functional, cell-based;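 note: intracellular parasites grown in NIH/3T3 mouse fibroblasts as host cells; luminescent beta-galactosidase reporter signal from transgenic T. cruzi replicating inside host cells; inhibitors lower the luminescence signal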
[27] = A Cell Based Secondary Assay to Explore Cytotoxicity in THP-1 Cells of Compounds that Modulate Mycobacterium tuberculosis in Media Containing Glycerol versus Media without Glycerol (2).; assay type: functional
[28] = NIH3T3 cell viability loss – ATP luminescence, mouse fibroblasts, counter-screen, dose response (AID 2010); assay type: functional, cell-based;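 note: cells exposed to compound for about 90 hours before reading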
cells = assay type: functional
Cysteine protease ATG4B = Cysteine protease ATG4B (Homo sapiens, UniProt Q9Y4P1); assay type: functional;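 note: Fluorescence-based dose-response confirmation assay measuring inhibition of ATG4B activity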
Cysteine protease ATG4B, sequence (Q9Y4P1 whole entry): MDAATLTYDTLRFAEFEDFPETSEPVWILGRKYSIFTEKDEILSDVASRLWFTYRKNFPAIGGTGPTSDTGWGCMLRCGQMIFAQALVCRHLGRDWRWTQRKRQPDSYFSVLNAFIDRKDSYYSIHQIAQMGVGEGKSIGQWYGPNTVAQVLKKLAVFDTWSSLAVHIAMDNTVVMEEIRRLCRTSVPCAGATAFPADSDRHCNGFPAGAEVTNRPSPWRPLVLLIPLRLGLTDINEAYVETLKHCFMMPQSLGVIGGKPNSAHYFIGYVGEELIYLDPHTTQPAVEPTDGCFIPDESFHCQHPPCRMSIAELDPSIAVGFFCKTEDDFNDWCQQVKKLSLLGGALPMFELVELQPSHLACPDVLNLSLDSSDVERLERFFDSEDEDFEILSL

Phospholipase A2 = Phospholipase A2 (Homo sapiens, UniProt P04054); assay type: functional;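 note: confirmatory dose-response counterscreen on phospholipase A2, testing hits that came from an ultra-high-throughput screen for ATG4B inhibitors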
Phospholipase A2, sequence (P04054 whole entry): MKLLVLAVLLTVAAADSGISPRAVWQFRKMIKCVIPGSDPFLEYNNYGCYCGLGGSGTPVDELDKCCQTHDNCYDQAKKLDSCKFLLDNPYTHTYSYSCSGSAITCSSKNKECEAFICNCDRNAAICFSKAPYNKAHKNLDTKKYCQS

Phospholipase D2 = Phospholipase D2 (Homo sapiens, UniProt O14939); assay: cellular phospholipase D2 inhibition IC50 – cell-based, dose response (AID 602147); assay type: functional;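 note: cellular assay in HEK293 cells overexpressing GFP-tagged PLD2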
Phospholipase D2, sequence (O14939 whole entry): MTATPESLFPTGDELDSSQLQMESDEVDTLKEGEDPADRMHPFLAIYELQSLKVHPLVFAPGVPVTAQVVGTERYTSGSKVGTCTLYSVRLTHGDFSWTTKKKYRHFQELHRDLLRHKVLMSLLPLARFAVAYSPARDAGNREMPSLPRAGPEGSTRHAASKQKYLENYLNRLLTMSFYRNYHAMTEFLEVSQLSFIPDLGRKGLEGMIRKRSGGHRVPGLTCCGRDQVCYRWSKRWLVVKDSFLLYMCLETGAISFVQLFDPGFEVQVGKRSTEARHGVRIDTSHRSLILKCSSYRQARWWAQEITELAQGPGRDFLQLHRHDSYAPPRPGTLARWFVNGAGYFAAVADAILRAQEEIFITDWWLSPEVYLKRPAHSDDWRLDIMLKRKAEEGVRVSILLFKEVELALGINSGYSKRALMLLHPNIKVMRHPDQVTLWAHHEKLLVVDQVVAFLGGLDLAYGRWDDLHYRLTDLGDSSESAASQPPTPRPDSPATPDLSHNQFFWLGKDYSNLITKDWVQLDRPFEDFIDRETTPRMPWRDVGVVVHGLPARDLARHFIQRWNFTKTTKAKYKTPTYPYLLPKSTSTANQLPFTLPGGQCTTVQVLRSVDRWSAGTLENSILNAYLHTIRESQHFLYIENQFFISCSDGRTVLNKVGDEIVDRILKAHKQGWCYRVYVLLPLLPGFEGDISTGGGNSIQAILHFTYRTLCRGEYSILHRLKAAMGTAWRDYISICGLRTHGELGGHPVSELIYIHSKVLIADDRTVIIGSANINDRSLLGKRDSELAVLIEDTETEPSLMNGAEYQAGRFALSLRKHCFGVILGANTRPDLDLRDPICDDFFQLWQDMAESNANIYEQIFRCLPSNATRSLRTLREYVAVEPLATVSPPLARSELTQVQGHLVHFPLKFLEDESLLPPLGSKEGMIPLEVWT

Phospholipase D1 = Phospholipase D1 (Homo sapiens, UniProt Q13393); assay: cellular phospholipase D1 inhibition IC50 – cell-based, dose response (AID 602151); assay type: functional;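 note: cellular PLD1 assay in Calu-1 cells stimulated with PMA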
Phospholipase D1, sequence (Q13393 whole entry): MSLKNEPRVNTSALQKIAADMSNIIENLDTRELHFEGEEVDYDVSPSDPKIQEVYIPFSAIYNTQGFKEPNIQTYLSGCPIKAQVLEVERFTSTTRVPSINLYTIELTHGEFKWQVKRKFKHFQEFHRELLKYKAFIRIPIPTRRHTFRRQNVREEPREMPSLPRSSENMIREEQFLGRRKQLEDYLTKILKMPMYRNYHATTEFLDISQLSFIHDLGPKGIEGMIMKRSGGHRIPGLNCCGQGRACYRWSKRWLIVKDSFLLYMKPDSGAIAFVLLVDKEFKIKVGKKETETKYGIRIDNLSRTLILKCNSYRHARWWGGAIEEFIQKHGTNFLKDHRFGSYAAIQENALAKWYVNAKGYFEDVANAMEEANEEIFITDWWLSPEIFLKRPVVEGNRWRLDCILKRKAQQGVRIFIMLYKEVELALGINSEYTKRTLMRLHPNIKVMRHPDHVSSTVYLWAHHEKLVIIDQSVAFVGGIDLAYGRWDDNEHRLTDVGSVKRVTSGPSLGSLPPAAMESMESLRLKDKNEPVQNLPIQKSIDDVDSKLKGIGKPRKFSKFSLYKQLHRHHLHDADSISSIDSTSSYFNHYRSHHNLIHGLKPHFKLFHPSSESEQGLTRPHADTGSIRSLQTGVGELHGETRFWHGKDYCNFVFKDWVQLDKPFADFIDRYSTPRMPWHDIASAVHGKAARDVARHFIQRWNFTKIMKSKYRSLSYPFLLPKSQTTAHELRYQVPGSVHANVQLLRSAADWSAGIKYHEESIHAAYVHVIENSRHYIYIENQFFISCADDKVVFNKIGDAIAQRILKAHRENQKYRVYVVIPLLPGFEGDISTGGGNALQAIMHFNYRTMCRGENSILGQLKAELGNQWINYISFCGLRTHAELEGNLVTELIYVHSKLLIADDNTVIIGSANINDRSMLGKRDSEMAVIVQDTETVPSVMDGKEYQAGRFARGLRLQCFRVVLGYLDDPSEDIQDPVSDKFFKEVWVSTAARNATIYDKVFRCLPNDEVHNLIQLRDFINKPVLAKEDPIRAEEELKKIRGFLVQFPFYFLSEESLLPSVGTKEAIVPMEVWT

HEK293 [29] = assay: SAR Analysis of small molecule inhibitors of both B-cell and T-cell specific antigen receptor-induced NF-kB activation in a HEK-293T cell line using a luminescence assay. [Related pubchem assays (depositor defined):AID435003, AID435022, AID465, AID489019, AID489029]; assay type: functional, cell-based; settings: Homo sapiens
Jurkat = assay: SAR Analysis of small molecule inhibitors of both B-cell and T-cell specific antigen receptor-induced NF-kB activation in a Jurkat cell line using a luminescence assay. [Related pubchem assays (depositor defined):AID435003, AID435022, AID465, AID489029]; assay type: functional, cell-based; settings: Homo sapiens
HEK293 [30] = assay: HEK293T cell viability loss, resazurin readout – resazurin fluorescence, cytotoxicity control for NF-kB activator project, SAR follow-up (AID 493251); assay type: functional, cell-based; settings: Homo sapiens
Orexin receptor type 2 [31] = target: T3, Orexin receptor type 2 (Homo sapiens, UniProt O43614); assay: Counterscreen assay for antagonists of the orexin 1 receptor (OX1R; HCRTR1): Homogeneous Time Resolved Fluorescence (HTRF)-based cell-based dose response assay for antagonists of the orexin 2 receptor (OX2R; HCRTR2), run by assay provider.; assay type: functional
T3 sequence (O43614 whole entry): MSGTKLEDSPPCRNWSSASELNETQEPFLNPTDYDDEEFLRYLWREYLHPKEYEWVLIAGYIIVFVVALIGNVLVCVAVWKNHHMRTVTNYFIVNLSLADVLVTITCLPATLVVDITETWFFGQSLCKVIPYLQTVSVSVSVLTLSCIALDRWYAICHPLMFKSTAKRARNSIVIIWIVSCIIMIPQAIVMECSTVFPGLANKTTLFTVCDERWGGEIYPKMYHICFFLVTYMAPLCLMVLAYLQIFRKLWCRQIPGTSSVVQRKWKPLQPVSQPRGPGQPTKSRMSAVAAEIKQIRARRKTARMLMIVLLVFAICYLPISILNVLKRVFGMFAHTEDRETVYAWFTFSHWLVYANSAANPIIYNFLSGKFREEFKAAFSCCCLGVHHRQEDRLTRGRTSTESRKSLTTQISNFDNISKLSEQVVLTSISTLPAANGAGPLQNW

CHO-K1 = assay: Counterscreen for antagonists of the orexin 1 receptor (OX1R; HCRTR1): Homogeneous time resolved fluorescence (HTRF)-based cell-based dose response assay to identify antagonists of the parental CHO-K1 cell line. [Related pubchem assays (depositor defined):AID434989, AID435008, AID463079, AID485270, AID492963, AID492964, AID492965, AID493232, AID504699, AID504701]; assay type: functional; settings: Cricetulus griseus;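 note: potency for inhibition of ATP-stimulated IP1 production as antagonists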
Orexin receptor type 2 [32] = target: T3, Orexin receptor type 2; assay: Counterscreen assay for antagonists of the orexin 1 receptor (OX1R; HCRTR1): Fluorescence-based cell-based dose response assay for antagonists of the orexin 2 receptor (OX2R; HCRTR2), run by assay provider.; assay type: functional
[33] = target: T4, Orexin/Hypocretin receptor type 1 (Homo sapiens, UniProt O43613); assay: Homogeneous Time Resolved Fluorescence (HTRF)-based cell-based high throughput dose response assay for antagonists of the orexin 1 receptor (OX1R; HCRTR1). [Related pubchem assays (depositor defined):AID434989, AID435008, AID463079, AID485270, AID492963, AID492964, AID492965, AID493232, AID504717, AID504718]; assay type: functional
T4 sequence (O43613 whole entry): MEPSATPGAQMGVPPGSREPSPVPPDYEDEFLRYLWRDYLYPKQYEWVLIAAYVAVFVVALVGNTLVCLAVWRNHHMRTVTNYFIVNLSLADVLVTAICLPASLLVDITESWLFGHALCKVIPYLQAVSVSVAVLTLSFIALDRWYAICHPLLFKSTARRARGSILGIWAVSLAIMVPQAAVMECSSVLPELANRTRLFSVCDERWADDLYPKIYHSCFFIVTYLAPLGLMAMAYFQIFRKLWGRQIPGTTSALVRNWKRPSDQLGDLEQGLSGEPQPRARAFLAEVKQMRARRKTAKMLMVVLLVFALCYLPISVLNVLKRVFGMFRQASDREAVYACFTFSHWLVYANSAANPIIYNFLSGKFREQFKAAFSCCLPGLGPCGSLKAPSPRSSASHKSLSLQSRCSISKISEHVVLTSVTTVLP

[34] = target: T4, Orexin/Hypocretin receptor type 1; assay: Fluorescence-based cell-based high throughput dose response assay for antagonists of the orexin 1 receptor (OX1R; HCRTR1). [Related pubchem assays (depositor defined):AID434989, AID435008, AID463079, AID485270, AID492963, AID492964, AID492965, AID493232, AID504717, AID504718]; assay type: functional
[35] = Counterscreen for antagonists of the orexin 1 receptor (OX1R; HCRTR1): Fluorescence-based cell-based high throughput dose response assay to identify antagonists of the parental CHO cell line. [Related pubchem assays (depositor defined):AID434989, AID435008, AID463079, AID485270, AID492963, AID492964, AID492965, AID493232, AID504699, AID504701]; assay type: functional
[36] = target: Dual specificity protein kinase CLK1 (Homo sapiens, UniProt P49759); assay: inhibition of human CLK1 activity – biochemical, cherry-picked samples, selectivity assay for Dyrk1A inhibitor project, dose response (AID 588811)
Dual specificity protein kinase CLK1, sequence (P49759 whole entry): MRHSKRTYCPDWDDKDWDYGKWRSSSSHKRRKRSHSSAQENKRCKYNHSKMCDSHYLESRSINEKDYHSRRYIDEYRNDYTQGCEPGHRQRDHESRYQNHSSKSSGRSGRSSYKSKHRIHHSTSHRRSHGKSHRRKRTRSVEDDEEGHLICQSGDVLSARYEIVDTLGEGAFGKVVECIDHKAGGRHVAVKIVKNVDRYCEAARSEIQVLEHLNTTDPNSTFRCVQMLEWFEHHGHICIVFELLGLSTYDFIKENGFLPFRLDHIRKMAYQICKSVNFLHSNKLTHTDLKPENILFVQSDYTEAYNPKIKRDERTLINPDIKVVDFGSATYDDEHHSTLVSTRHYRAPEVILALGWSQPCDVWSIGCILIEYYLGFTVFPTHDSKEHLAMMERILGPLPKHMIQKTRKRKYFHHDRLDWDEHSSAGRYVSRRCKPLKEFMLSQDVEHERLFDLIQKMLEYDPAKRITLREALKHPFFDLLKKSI

CCOc1ccc(-c2ccc(SC)nn2)cc1
AC50 [1]: 3.05 µM (active) | AC50 [2]: 2.36 µM (active) | AC50 [3]: 5.17 µM (active) | AC50 [4]: 20.8 µM (active) | AC50 [5]: 76.7 µM (active) | EC50 [6]: 2.3 µM (active) | EC50 [7]: 1.74 µM (active) | AC50 [8]: 14 µM (active) | AC50 [9]: 15 µM (active) | EC50 [10]: 9.86 µM (active) | EC50 (BJ [11]): 11.5 µM (active) | EC50 (BJ [12]): > 150 µM (not active) | EC50 (BJ [13]): 9.15 µM (active) | AC50 [14]: 26.1 µM (active) | AC50 [15]: 18.6 µM (active)

C[C@@H]1CC=C[C@H]2[C@H]1C(=O)N(Cc1ccccc1)[C@H]2c1cccc([N+](=O)[O-])c1
AC50 [16]: 58.9 µM (active) | EC50 [17]: 22.7 µM (active)

CCn1nc(C(=O)Nc2nc(-c3ccccn3)cs2)c2ccccc2c1=O
AC50 (HEK293 [18]): 11.4 µM (active) | IC50 (H9c2): 16.2 µM (active)

N/C(Cc1ccc(Cl)cc1)=N\OC(=O)c1cccc2ccccc12
AC50 [19]: 1.8 µM (active)

Cc1ccc2nc3c(cc2c1)c(NC(=O)c1ccco1)nn3CC(C)C
IC50 [20]: > 67.5 µM (inactive) | IC50 (HEK293 [21]): > 67.5 µM (inactive)

O=C(NCC(c1cccs1)N1CCOCC1)c1cc([N+](=O)[O-])cc([N+](=O)[O-])c1 (stereo not given)
CC50 [22]: 44.4 µM (active) | CC50 [23]: > 50 µM (active) | CC50 [24]: > 40 µM (active) | CC50 [25]: > 40 µM (active) | EC50 [26]: 0.726 µM (active) | CC50 [27]: 69 µM (active) | EC50 [28]: > 60 µM (not active) | IC50 (cells): 1.37 µM (active)

N#Cc1c(N)[nH]c2ccc(Sc3ccccc3)cc12
IC50 (Cysteine protease ATG4B): 11.5 µM (active) | IC50 (Phospholipase A2): 9.57 µM (active)

O=C(NCCN1CCC(C(=O)NCC2CC2)CC1)c1ccc2ccccc2c1
IC50 (Phospholipase D2): 20 µM (active) | IC50 (Phospholipase D1): 20 µM (active)

Cc1ccc(S(=O)(=O)Nc2cccc3ccc(C)nc23)cc1
IC50 (HEK293 [29]): > 79 µM (inactive) | IC50 (Jurkat): 1.79 µM (active) | IC50 (HEK293 [30]): > 80 µM (inactive)

O=C(NC(Cc1c[nH]c2ccccc12)C(=O)N/N=C/c1ccc(Br)cc1)c1cccs1 (stereo not given)
IC50 (Orexin receptor type 2 [31]): 11.1 µM (inactive) | IC50 (CHO-K1): > 66.2 µM (inactive) | IC50 (Orexin receptor type 2 [32]): 14.3 µM (inactive) | IC50 [33]: 2.99 µM (active) | IC50 [34]: 7.4 µM (active) | IC50 [35]: > 49.8 µM (inactive)

Cc1nc(N)sc1-c1csc(Nc2ccccc2)n1
AC50 [4]: 14.4 µM (active) | AC50 [36]: 18.3 µM (active)
